The NIST ThermoML archive (doi:10.1021/je8009732)

Assays:
[1] = 298.15 K, 101.3 kPa, Liquid; for mass density: Vibrating tube method
[2] = refractive index (Na D-line) (dimensionless); details: 298.15 K; 101.33 kPa; Liquid; Standard Abbe refractometry
[3] = xn = mol fraction of the nth substance listed; details: 298.15 K, 101.3 kPa, Liquid; for mass density: Vibrating tube method
[4] = refractive index (Na D-line) (dimensionless); xn = mol fraction of the nth substance listed; details: 298.15 K, 101.3 kPa, Liquid, Standard Abbe refractometry

CCOS(=O)(=O)[O-].CC[n+]1cccc(C)c1 [1-ethyl-3-methylpyridinium ethylsulfate]
Details | mass density [kg/m3] | refractive index | viscosity [mPa·s]
[1] | 1222.2 | – | 161.4
[2] | – | 1.50666 | –

CCOS(=O)(=O)[O-].CC[n+]1cccc(C)c1 [1-ethyl-3-methylpyridinium ethylsulfate] + CCCO
Details | mass density, [3] [kg/m3] | refractive index, [4] | viscosity, [3] [mPa·s]
x2 = 0 | 1222.2 | 1.50666 | 161.4
x2 = 0.0863 | 1208.44 | 1.50223 | 126.4
x2 = 0.1279 | 1201.22 | 1.5002 | 112.4
x2 = 0.2201 | 1183.56 | 1.49524 | 85.83
x2 = 0.3243 | 1160.24 | 1.48866 | 62.26
x2 = 0.4177 | 1135.68 | 1.48167 | 48.86
x2 = 0.5126 | 1106.18 | 1.47321 | 34.16
x2 = 0.6093 | 1069.97 | 1.4627 | 24.62
x2 = 0.7176 | 1019.9 | 1.44818 | 16.27
x2 = 0.824 | 956.78 | 1.4297 | 9.9
x2 = 0.8834 | 913.04 | 1.41684 | 7.027
x2 = 0.9658 | 837.78 | 1.39459 | 3.411

CCCO [propan-1-ol]
Details | mass density [kg/m3] | refractive index | viscosity [mPa·s]
[1] | 799.5 | – | 2.017
[2] | – | 1.3837 | –

CCCO [propan-1-ol] + CCOS(=O)(=O)[O-].CC[n+]1cccc(C)c1
x1 = 1
Details | mass density [kg/m3] | refractive index | viscosity [mPa·s]
[3] | 799.5 | – | 2.017
[4] | – | 1.3837 | –
